Laboratory results published in publication PMC7840129, “Structural basis for heme-dependent NCoR binding to the transcriptional repressor REV-ERBβ” (Science Advances, 2021).

Key:
[1] = tested on: REV-ERB LBD interaction with NCoR ID motif peptides; conditions: REV-ERBs; cited from earlier work
Text: The iron-centered porphyrin heme has been identified as the endogenous REV-ERB ligand ([7], [8]). […] Structural data would help establish that heme directly produces a REV-ERB LBD conformation that enhances NCoR binding. However, published biochemical and structural studies contradict cell-based evidence ([7]–[11]).

[2] = tested on: REV-ERB LBD interaction with NCoR ID motif peptides; experiment: fluorescence-based peptide binding assays; conditions: fig. S2A; authors attribute it to heme quenching artifact
REV-ERBβ LBD / NCoR RID = experiment: Chemical cross-linking mass spectrometry (XL-MS); type: binding; conditions: LBD:RID complexes ± heme; DSSO; significant at Padj < 0.05
Description: (§1) Apo or heme-bound REV-ERBβ LBD and NCoR RID protein samples were cross-linked in Hepes gel filtration buffer [25 mM Hepes (pH 7.5) at room temperature, 50 mM NaCl, and 0.5 mM TCEP]. Non–cross-linked negative controls were generated using the same procedure without the addition of DSSO (Thermo Fisher Scientific). Samples included 4 μM apo LBD with or without 2 μM RID and 4 μM heme-bound LBD with or without 2 μM RID; complexes were preincubated 1 hour on ice. Reactions were initiated by spiking DSSO in DMSO at a final concentration of 600 μM in 50-μl solutions. The final molar ratio of cross-linker:protein was 100:1. The reactions were incubated at 25°C for 45 min before being quenched by the addition of tris (pH 8.0) to a final concentration of 50 mM. Each cross-link reaction was done in triplicate, and the reaction replicates were pooled after quenching. Samples (10 μl) were loaded for SDS-PAGE analysis with Coomassie staining to confirm the presence of cross-linked protein. The remaining cross-linked and non–cross-linked samples were then acetone-precipitated at −20°C overnight, and the protein was pelleted by centrifugation at 16,000 relative centrifugal force (rcf) for 5 min at 4°C. After decanting, the pellets were dried for 15 min at room temperature before being resuspended in 12.5 μl of resuspension buffer [50 mM ammonium bicarbonate and 8 M urea (pH 8.0)]. […]

[3] = heme fluorescence quenching; conditions: fig. S2C
REV-ERBβ LBD = experiment: DSSO chemical cross-linking, SDS-PAGE; type: binding, human; conditions: LBD-only samples, 600 μM DSSO, 25°C, 45 min
Description: To further support this stoichiometry, we performed chemical cross-linking analysis of apo or heme-bound LBD ± RID using DSSO (disuccinimidyl sulfoxide), a cross-linker that cross-links lysine residues as well as serine, threonine, and tyrosine residues (fig. S9, A and B).
as §1, with “protein.” for “protein. The remaining cross-linked and non–cross-linked samples were then acetone-precipitated at −20°C overnight, and the protein was pelleted by centrifugation at 16,000 relative centrifugal force (rcf) for 5 min at 4°C. After decanting, the pellets were dried for 15 min at room temperature before being resuspended in 12.5 μl of resuspension buffer [50 mM ammonium bicarbonate and 8 M urea (pH 8.0)].”

Structure (SMILES): C=CC1=C(C)c2cc3[n-]c(cc4[n-]c(cc5nc(cc1n2)C(C)=C5C=C)c(C)c4CCC(=O)O)c(CCC(=O)O)c3C.[Fe+2] [heme]
- displacement of NCoR ID peptides in fluorescence-based biochemical assays [1]: dose-dependently displace NCoR interaction domain (ID) peptides from the REV-ERBs
- effect of heme on ID peptide interaction in fluorescence-based assays [2]: dose-dependently reduces REV-ERB LBD interaction with peptides derived from NCoR ID motifs
- effect of heme on cross-links (REV-ERBβ LBD / NCoR RID): reduced LBD-LBD and LBD-RID cross-links, particularly for residues in the AF-2 surface
- heme quenching of fluorophores [3]: quenches fluorophores across a broad range of emissions
- LBD dimer band by cross-linking SDS-PAGE, effect of heme (REV-ERBβ LBD): weak dimer band in LBD-only samples that was unchanged by heme
